Like-named read-outs stand apart in the source and are kept apart here.

Series [1] addresses T1, rat liver FBPase (Rattus norvegicus, UniProt P19112).
T1 construct: made in house; host or cells: E. coli BL21
T1 sequence (P19112 2-363 limits assumed): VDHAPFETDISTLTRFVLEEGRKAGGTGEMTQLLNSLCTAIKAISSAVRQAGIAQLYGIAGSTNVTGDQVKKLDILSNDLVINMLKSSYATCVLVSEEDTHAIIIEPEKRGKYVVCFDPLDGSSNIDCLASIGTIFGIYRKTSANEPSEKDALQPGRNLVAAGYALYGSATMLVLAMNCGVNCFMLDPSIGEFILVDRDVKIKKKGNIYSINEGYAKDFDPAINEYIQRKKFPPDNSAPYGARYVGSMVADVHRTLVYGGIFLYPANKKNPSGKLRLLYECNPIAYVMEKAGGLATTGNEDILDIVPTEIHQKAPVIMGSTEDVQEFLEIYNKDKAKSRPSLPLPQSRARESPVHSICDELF
As to the kind of experiment: Inhibition of Rat Liver FBPase. It counts as biochemical. The following applies: assay identical to human liver FBPase; read-out: IC50 for AMP, rat liver FBPase. On the procedure:
Recombinant FBPase is purified as described (El-Maghrabi, M. R., and Pilkis, S. J. (1991) Biochem. Biophys. Res. Commun. 176, 137-144) The enzyme assay is identical to that described above for human liver FBPase. The IC50 for AMP is 20 μM.

Series [2] concerns the target T2, human liver FBPase (Homo sapiens, UniProt P09467).
T2 sequence (P09467 2-338 limits assumed): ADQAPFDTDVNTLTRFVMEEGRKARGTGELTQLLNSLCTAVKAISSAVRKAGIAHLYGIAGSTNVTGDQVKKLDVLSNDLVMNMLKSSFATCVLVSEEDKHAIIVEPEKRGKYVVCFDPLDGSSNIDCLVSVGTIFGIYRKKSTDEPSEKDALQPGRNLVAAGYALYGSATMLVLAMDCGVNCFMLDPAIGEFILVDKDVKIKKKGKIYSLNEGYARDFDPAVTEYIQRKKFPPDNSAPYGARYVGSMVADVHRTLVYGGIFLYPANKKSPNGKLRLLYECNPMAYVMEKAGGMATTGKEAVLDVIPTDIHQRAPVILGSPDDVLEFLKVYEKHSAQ
As to the kind of experiment: Inhibition of Human Liver FBPase.
Method: Enzymatic activity was measured spectrophotometrically in reactions that coupled the formation of product (fructose-6-phosphate) to the reduction of dimethylthiazoldiphenyltetrazolium bromide (MTT) via NADP^+ and phenazine methosulfate (PMS), using phosphoglucose isomerase and glucose 6-phosphate dehydrogenase as the coupling enzymes. Reaction mixtures (200 μl) were made up in 96-well microtitre plates, and consisted of 50 mM Tris-HCl, pH 7.4, 100 mM KCl, 5 mM EGTA, 2 mM MgCl2, 0.2 mM NADP, 1 mg/ml BSA, 1 mM MTT, 0.6 mM PMS, 1 unit/ml phosphoglucose isomerase, 2 units/ml glucose 6-phosphate dehydrogenase, and 0.150 mM substrate (fructose-1,6-bisphosphate). Inhibitor concentrations were varied from 0.01 μM to 10 μM. Reactions were started by the addition of 0.002 units of pure hlFBPase, and were monitored for 7 minutes at 590 nm in a Molecular Devices Plate Reader (37° C.).

Series [3] deals with human liver microsomes (P450 isozymes CYP3A4, CYP1A2, CYP2C9). Nature of the series: Identification of the P450 Isozyme Involved in the Activation. It counts as in vitro ADME. The following applies: 0-100 μM P450 isozyme inhibitor. How it is done:
Prodrugs are evaluated for human microsome-catalyzed conversion to parent compound in the absence and presence of specific inhibitors of three major P450 isozymes: ketoconazole (CYP3A4), furafylline (CYP1A2), and sulfaphenazole (CYP2C9).
Methods: Reaction (0.5 ml@37° C.) consist of 0.2 M KH2PO4, 13 mM glucose-6-phosphate, 2.2 mM NADP^+, 1 unit of glucose-6-phosphate dehydrogenase, 0-2.5 mg/ml human microsomal protein (In Vitro Technologies, In.), […], and 0-100 μM P450 isozyme inhibitor. Reactions are stopped by addition of methanol to a concentration of 60%, filtered ([…]), and lyophilized. Samples are resuspended in HPLC buffer (10 mM phosphate pH 5.5, 2.5 mM octyl-triethylammonium), loaded onto a YMC C8 HPLC column (250×4.6 mm), and eluted with a methanol gradient to 80%. Formuation of parent drug is confirmed by co-elution with an authentic parent drug standard.
Results: Prodrug is converted readily to parent drug in human liver microsomes.

In general, IC50 refers to the concentration at which inhibition is half-maximal. With `Nc1ncnc2c1ncn2[C@@H]1O[C@H](COP(=O)(O)O)[C@@H](O)[C@H]1O` [AMP, reference compound], the 50% inhibitory concentration (IC50) came out at 20 µM in series [1] and 1 µM in series [2] (read-out: IC50 for AMP, human liver FBPase, text value for reference AMP). In turn, `O=[N+]([O-])c1cc(-c2ccc(P(=O)(O)O)o2)cc([N+](=O)[O-])c1` [Compound 1.01, 5-(3,5-Dinitrophenyl)-2-furanphosphonic Acid] gave a half-maximal inhibitory concentration (IC50) in series [2] of 0.31 µM. Still for that read-out and setting: to `Nc1c(-c2ccc(P(=O)(O)O)o2)cc([N+](=O)[O-])cc1[N+](=O)[O-]` [Compound 1.02] belongs 1.8 µM; to `COc1ccc(Cl)cc1-c1ccc(P(=O)(O)O)o1` [Compound 1.03], 0.5 µM.

Compound `O=P(O)(O)c1ccc(-c2ccc(F)cc2)o1` [Compound 2.01, 5-(4-Fluorophenyl)-2-furanphosphonic Acid] showed a half-maximal inhibitory concentration (IC50) in series [2] of 2.2 µM.

Take `O=P(O)(O)c1ccc(-c2ccc(Cl)cc2Cl)o1` [Compound 2.02]: the half-inhibitory concentration (IC50) in series [2] was 3 µM.

In the case of `Nc1cc(-c2ccc(P(=O)(O)O)o2)ccc1Br` [Compound 3.01, 5-(4-Bromo-3-aminophenyl)-2-furanphosphonic Acid], the IC50 in series [2] is 5.5 µM. On the same count and under the same terms, under `COc1ccc(CNc2ccccc2)cc1-c1ccc(P(=O)(O)O)o1` [Compound 4.46] stands 3 µM; under `COc1ccc(CNc2ccc(O)cc2)cc1-c1ccc(P(=O)(O)O)o1` [Compound 4.48], 0.14 µM; under `COc1ccc(CNc2ccc(N)cc2)cc1-c1ccc(P(=O)(O)O)o1` [Compound 4.49], 0.32 µM.

As for `COc1ccc(CNc2ccc(NC(C)=O)cc2)cc1-c1ccc(P(=O)(O)O)o1` [Compound 4.50], the half-maximal inhibitory concentration (IC50) in series [2] was 6.5 µM.

In turn, `COc1ccc(CN(C(C)=O)c2ccc(N)cc2)cc1-c1ccc(P(=O)(O)O)o1` [Compound 4.51] came in with a concentration for half-maximal inhibition (IC50) in series [2] of 12 µM.

Consider `O=C(NCP(=O)(O)O)c1ccc(Br)o1` [Compound 8.01, N-(Phosphonomethyl)-5-bromofuran-2-carboxamide], for which half-maximal inhibition in series [2] (IC50) required 4 µM. On to `O=C(NCP(=O)(O)O)c1cc([N+](=O)[O-])cc([N+](=O)[O-])c1` [Compound 8.14], for which the IC50 in series [2] is 4 µM. In series [2], `COc1cc(Cl)ccc1C(=O)OCP(=O)(O)O` [Compound 11.01, Phosphonomethyl 4-Chloro-2-methoxybenzoate] had an IC50 of 2.8 µM. `O=C(OCP(=O)(O)O)c1ccc(Br)o1` [Compound 11.02] displayed an IC50 in series [2] of 6.4 µM. On to `COc1c(Br)cccc1C(=O)OCP(=O)(O)O` [Compound 12.01, Phosphonomethyl 3-Bromo-2-methoxybenzoate], for which, in series [2], the IC50 was found to be 4.2 µM. For the compound `COc1cc(COCP(=O)(O)O)ccc1Br` [Compound 13.01, 4-Bromo-3-methoxyphenylmethoxymethylphosphonic acid], in series [2], half-maximal inhibition (IC50) was put at 11 µM. In the case of `O=[N+]([O-])c1cc(COCP(=O)(O)O)cc([N+](=O)[O-])c1` [Compound 13.02], the IC50 in series [2] was determined as 9 µM. For the compound `O=P(O)(O)C#Cc1ccccc1` [Compound 16.01, 1-Phosphono-2-phenylacetylene], in series [2], half-maximal inhibition (IC50) required 89 µM. With `CC(=O)N1CCN(c2ccc(OCC3COC(Cn4ccnc4)(c4ccc(Cl)cc4Cl)O3)cc2)CC1` (stereo not drawn) [Ketoconazole], the “inhibition of formation of parent drug from prodrug by P450 isozyme inhibitor” value in series [3] is “inhibit the formation of parent drugs in a dose-dependent fashion”. Still for that read-out and setting: to `Cc1nc2c([nH]1)c(=O)n(C)c(=O)n2Cc1ccco1` [fusafylline] belongs “no significant inhibition”; to `Nc1ccc(S(=O)(=O)Nc2ccnn2-c2ccccc2)cc1` [sulfaphenazole], “no significant inhibition”.
